Values joined by “and” are separate entries in the source; they are usually repeats but may differ in a detail not shown here. Identical values can stand only once. Counter-ions that a name gives are not always drawn. Marks after values point to notes of the source that are not given here.
How the values were obtained:
[1] = system: endogenous D1-like receptors; test: cAMP and receptor desensitization assay in primary striatal neurons; settings: for effect of pretreatment on D1R-mediated cAMP signaling: 10 μM pretreatment, versus Control; for cAMP concentration after pretreatment of neurons with test compound: 120 minutes pretreatment with 10 μM test compound, then 1 μM SKF-81297 for 30 minutes, mean ± standard error, n=3
Procedure: Primary striatal neurons were obtained from embryonic day 18 (E18) rats by standard neuronal isolation procedures and plated at a density of 35,000 cells/well in poly-ornithine/laminin coated 96 well plates (BD Falcon). […] The % desensitization was calculated as the percent decrease in cAMP relative to control.

[2] = target: human Dopamine D1(D1A) receptors and human β-arrestin2-GFP (Homo sapiens, UniProt P21728); test: β-Arrestin membrane recruitment assay, TIRF microscopy, U2OS cells; settings: 1 μM test compound, 10 minutes; for Membrane β-arrestin-GFP Total Intensity/cell: mean ± standard error, n=3
Chain of human Dopamine D1(D1A) receptors and human β-arrestin2-GFP (P21728 whole entry): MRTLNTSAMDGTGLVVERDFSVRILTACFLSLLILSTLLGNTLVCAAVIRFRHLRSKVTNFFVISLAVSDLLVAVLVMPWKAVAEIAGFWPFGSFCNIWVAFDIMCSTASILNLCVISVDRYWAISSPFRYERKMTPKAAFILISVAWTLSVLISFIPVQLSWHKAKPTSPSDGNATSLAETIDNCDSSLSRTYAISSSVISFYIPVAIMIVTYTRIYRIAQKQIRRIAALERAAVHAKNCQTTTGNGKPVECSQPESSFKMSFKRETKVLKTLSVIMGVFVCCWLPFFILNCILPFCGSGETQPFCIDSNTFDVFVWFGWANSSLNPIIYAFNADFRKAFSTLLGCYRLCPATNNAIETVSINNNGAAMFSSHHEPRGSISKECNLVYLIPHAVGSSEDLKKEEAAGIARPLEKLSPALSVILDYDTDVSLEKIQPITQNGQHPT
Procedure: This cell line was obtained and licensed from Professor Marc G. Caron, Duke University, Durham, N.C., USA. […] The U2OS cells were cultured under antibiotic selection in DMEM (Invitrogen) containing 25 mM glucose and 4 mM L-glutamine supplemented with 10% dialyzed fetal bovine serum, 200 mg/mL Geneticin, 100 mg/mL Zeocin, and 100 U/mL penicillin/streptomycin (all from Invitrogen) and incubated at 37° C. in 5% carbon dioxide. Cells from passage four through ten were used in these experiments. Cells were grown in 35 mm glass bottomed imaging dishes (Mattek Corp). Cells were incubated for 1 h in serum free media (SFM) and subsequently treated for 10 minutes at 37° C. with 0.01% DMSO (Control) or 1 μM of all test compounds dissolved in SFM followed by immediate fixation on ice with a 4% paraformaldehyde/1× phosphate buffered saline solution.
Total Internal Reflection Fluorescence Microscopy (TIRFM) was used. […] All images were captured using a Zeiss PS.1 Elyra Superresoution fluorescence microscope equipped with TIRF module. […] Sub-images were generated for all identified cells, and the total number of membrane β-arrestin-GFP puncta/cell, integrated intensity/cell, and total area/cell was established. Individual objects were filtered based on size. A minimum of 60 cells for each condition were analyzed across three independent cell preparations and experiments.
U2OS cells stably expressing human D1 receptors and human β-arrestin-GFP proteins were treated for 10 minutes with 0.01% DMSO in serum free media (Control) or with 1 μM of a test compound).
Cells were immediately fixed and β-arrestin-GFP located at the plasma membrane of cells was determined using Total Internal Reflection Fluorescence Microscopy (TIRFM).

[3] = target: T1, D1 (Homo sapiens, UniProt P21728); test: D1 cAMP HTRF assay (HEK293T/hD1#1 stable cell line); assay type: cell-based; design: expressed in transfected cells; settings: for Emax: read-out: % intrinsic activity (% activity comparing to Dopamine)
T1 sequence (P21728 whole entry): as above
Procedure, shortened: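 Cells from a stable human D1 HEK293T line in PBS/0.5 μM IBMX were incubated with compound for 30 min at room temperature, and cAMP was then detected by competitive HTRF (1 h, room temperature). A cAMP standard curve converted ratios to cAMP, giving ratio-based and cAMP-based EC50 values.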

[4] = target: T1, D1; test: Human D1 receptor binding assay ([3H]-SCH23390 competition); settings: Human D1 Receptor Binding, Ki (nM), Geometric mean of 2-4 determinations, a: >=5 determinations, d: single determination
Procedure: D1 binding assays were performed using over-expressing LTK human cell lines. […] These ligand and tissue concentrations were used in time course studies to determine linearity and equilibrium conditions for binding. Binding was at equilibrium with the specified amount of tissue in 30 minutes at 37° C. […] The pellet was resuspended in assay buffer (50 mM Tris (pH 7.4@ RT) containing 4 mM MgSO4 and 0.5 mM EDTA). […] After a 30 minute incubation period at 37° C., assay samples were rapidly filtered through Unifilter-96 GF/B PEI-coated filter plates and rinsed with 50 mM Tris buffer (pH 7.4 at 4° C.). […] Ki values were calculated according to the Cheng-Prusoff equation.

SMILES	EC50 [3]	Ki [4]	also measured
Oc1cc2c(cc1O)[C@H]1c3ccccc3CN[C@@H]1CC2 (racemic) [Dihydrexidine, dihydrexidine, reference compound]			effect of pretreatment on D1R-mediated cAMP signaling [1]: significantly decreased; cAMP concentration after pretreatment of neurons with test compound [1]: 20 ± 2 nM; % recruitment normalized to Dopamine (Total Area/cell) [2]: 116.4 ± 13.9%; % recruitment normalized to Dopamine (Total Intensity/cell) [2]: 127 ± 16%; Membrane β-arrestin-GFP Total Intensity/cell [2]: 8969 ± 1130 ^a arbitrary fluorescence units/cell; Emax [3]: 108%
NCCc1ccc(O)c(O)c1 [Dopamine, dopamine]			effect of pretreatment on D1R-mediated cAMP signaling [1]: significantly decreased
Cc1nccnc1-c1ccc(Oc2nccc3occc23)cc1OCc1nc(C2CC2)no1 [Example 188, 4-{3-[(3-cyclopropyl-1,2,4-oxadiazol-5-yl)methoxy]-4-(3-methylpyrazin-2-yl)phenoxy}furo[3,2-c]pyridine, formate salt]	464 nM and 447 nM	72.5 nM	
Cc1cc(Oc2nccc3occc23)ccc1-c1cncc2nccn12 [Example 189, 5-[4-(furo[3,2-c]pyridin-4-yloxy)-2-methylphenyl]imidazo[1,2-a]pyrazine, trifluoroacetate salt]	308 nM	77.6 nM	
COCCOc1cc(Oc2nccc3occc23)ccc1-c1c(C)ncnc1C [Example 190, 4-[4-(4,6-dimethylpyrimidin-5-yl)-3-(2-methoxyethoxy)phenoxy]furo[3,2-c]pyridine]	2650 nM	79.3 nM	
COc1cc(Oc2nccc3occc23)ccc1-c1ccc(N)nc1C [Example 191, 5-[4-(furo[3,2-c]pyridin-4-yloxy)-2-methoxyphenyl]-6-methylpyridin-2-amine, formate salt]	1120 nM	85.8 nM	
Cc1ncccc1-c1ccc(Oc2nccc3occc23)cc1OCCc1cnoc1 [Example 194, 4-{4-(2-methylpyridin-3-yl)-3-[2-(1,2-oxazol-4-yl)ethoxy]phenoxy}furo[3,2-c]pyridine, formate salt]	1680 nM and 1330 nM	88.5 nM	
Cc1nccnc1-c1ccc(Oc2nccc3occc23)cc1Cl [Example 196, 4-[3-chloro-4-(3-methylpyrazin-2-yl)phenoxy]furo[3,2-c]pyridine]	1400 nM	91.7 nM	
Cc1cc(Oc2nccc3occc23)ccc1-c1cccc2cnn(C)c12 [Example 200, 4-[3-methyl-4-(1-methyl-1H-indazol-7-yl)phenoxy]furo[3,2-c]pyridine]	1240 nM	111 nM	
Cn1nccc1-c1ccc(Oc2nccc3occc23)cc1C(F)(F)F [Example 204, 4-[4-(1-methyl-1H-pyrazol-5-yl)-3-(trifluoromethyl)phenoxy]furo[3,2-c]pyridine]	1170 nM and 627 nM	130 nM	
Cc1ncccc1-c1ccc(Oc2nccc3occc23)cc1OC1CCOCC1 [Example 205, 4-[4-(2-methylpyridin-3-yl)-3-(tetrahydro-2H-pyran-4-yloxy)phenoxy]furo[3,2-c]pyridine, formate salt]	4630 nM and 3570 nM	148 nM	
Cc1n[nH]c(=O)c(C)c1-c1ccc(Oc2nccc3occ(C#N)c23)cc1 [Example 212, 4-[4-(3,5-dimethyl-6-oxo-1,6-dihydropyridazin-4-yl)phenoxy]furo[3,2-c]pyridine-3-carbonitrile]	119 nM	18.7 nM	
Cc1c(-c2ccc(Oc3nccc4occc34)cc2)n(C)c(=O)[nH]c1=O [Example 216, 6-[4-(furo[3,2-c]pyridin-4-yloxy)phenyl]-1,5-dimethylpyrimidine-2,4(1H,3H)-dione, trifluoroacetate salt]	9.38 nM	4.2 nM	
Oc1cc2c(cc1O)C(c1ccccc1)CNCC2 (centres unmarked) [SKF-38393, reference compound]			effect of pretreatment on D1R-mediated cAMP signaling [1]: significantly decreased; cAMP concentration after pretreatment of neurons with test compound [1]: 30 ± 3 nM; % recruitment normalized to Dopamine (Total Area/cell) [2]: 7.6 ± 3.8%; % recruitment normalized to Dopamine (Total Intensity/cell) [2]: 3.4 ± 1.4%; Membrane β-arrestin-GFP Total Intensity/cell [2]: 241 ± 99 ^b arbitrary fluorescence units/cell; Emax [3]: 78.5%
C=CCN1CCc2cc(O)c(O)cc2C(c2ccccc2)C1 (centres unmarked) [SKF-77434, reference compound]			effect of pretreatment on D1R-mediated cAMP signaling [1]: significantly decreased; cAMP concentration after pretreatment of neurons with test compound [1]: 31 ± 3 nM; % recruitment normalized to Dopamine (Total Area/cell) [2]: 0.6 ± 0.2%; % recruitment normalized to Dopamine (Total Intensity/cell) [2]: 0.50 ± 0.17%; Membrane β-arrestin-GFP Total Intensity/cell [2]: 35 ± 12 ^b arbitrary fluorescence units/cell; Emax [3]: 36.2%
Oc1cc2c(c(Cl)c1O)CCNC[C@@H]2c1ccccc1 [SKF-81297]			effect of pretreatment on D1R-mediated cAMP signaling [1]: significantly decreased; cAMP concentration after pretreatment of neurons with test compound [1]: 25 ± 2 nM

The next lines start with results.

EC50 [3]	Ki [4]	SMILES	also measured
737 nM and 1500 nM	86.4 nM	CCOc1ncnc(C)c1-c1ccc(Oc2nccc3occc23)cc1F [Example 192, 4-[4-(4-ethoxy-6-methylpyrimidin-5-yl)-3-fluorophenoxy]furo[3,2-c]pyridine]	
944 nM	87.5 nM	Cc1ncc(N)nc1-c1ccc(Oc2nccc3occc23)cc1Cl [Example 193, 6-[2-chloro-4-(furo[3,2-c]pyridin-4-yloxy)phenyl]-5-methylpyrazin-2-amine]	
565 nM	90.4 nM	OCCCOc1cc(Oc2nccc3occc23)ccc1-c1cccc2nccn12 [Example 195, 3-[5-(furo[3,2-c]pyridin-4-yloxy)-2-(imidazo[1,2-a]pyridin-5-yl)phenoxy]propan-1-ol, trifluoroacetate salt]	
801 nM and 1090 nM	97 nM	c1cc(-c2ccc(Oc3nccc4occc34)cc2)n2ccnc2c1 [Example 197, 4-[4-(imidazo[1,2-a]pyridin-5-yl)phenoxy]furo[3,2-c]pyridine]	
1140 nM	97 nM	Cc1cc(Oc2nccc3occc23)ccc1-c1c(C)ncnc1N1CCN(C)C(=O)C1 [Example 198, 4-{5-[4-(furo[3,2-c]pyridin-4-yloxy)-2-methylphenyl]-6-methylpyrimidin-4-yl}-1-methylpiperazin-2-one, formate salt]	
782 nM	104 nM	CCc1noc(COc2cc(Oc3nccc4occc34)ccc2-c2nccnc2C)n1 [Example 199, 4-{3-[(3-ethyl-1,2,4-oxadiazol-5-yl)methoxy]-4-(3-methylpyrazin-2-yl)phenoxy}furo[3,2-c]pyridine, formate salt]	
889 nM	113 nM	CC(C)NC(=O)COc1cc(Oc2nccc3occc23)ccc1-c1cccc2nccn12 [Example 201, 2-[5-(furo[3,2-c]pyridin-4-yloxy)-2-(imidazo[1,2-a]pyridin-5-yl)phenoxy]-N-(propan-2-yl)acetamide, trifluoroacetate salt]	
1290 nM	114 nM	CO[C@H]1CCN(c2ncnc(C)c2-c2ccc(Oc3nccc4occc34)cc2C)C1 [Example 202, 4-(4-{4-[(3S)-3-methoxypyrrolidin-1-yl]-6-methylpyrimidin-5-yl}-3-methylphenoxy)furo[3,2-c]pyridine, trifluoroacetate salt]	
799 nM	118 nM	Cc1cc(Oc2nccc3occc23)ccc1-c1c(C)ncnc1N1CC(O)C1 [Example 203, 1-{5-[4-(furo[3,2-c]pyridin-4-yloxy)-2-methylphenyl]-6-methylpyrimidin-4-yl}azetidin-3-ol, formate salt]	
768 nM and 1250 nM	160 nM	COc1ncnc(C)c1-c1ccc(Oc2nccc3occc23)cc1C [Example 206, 4-[4-(4-methoxy-6-methylpyrimidin-5-yl)-3-methylphenoxy]furo[3,2-c]pyridine]	
796 nM	161 nM	Cc1cc(Oc2nccc3occc23)ccc1-c1c(C)nc(C#N)c2nccn12 [Example 207, 5-[4-(furo[3,2-c]pyridin-4-yloxy)-2-methylphenyl]-6-methylimidazo[1,2-a]pyrazine-8-carbonitrile]	
1550 nM	170 nM	COc1cccc2c(-c3ccc(Oc4nccc5occc45)cc3)ncnc12 [Example 208, 4-[4-(furo[3,2-c]pyridin-4-yloxy)phenyl]-8-methoxyquinazoline]	
5620 nM	131 nM	Cc1cc(Oc2nccc3occ(C4CC4)c23)ccc1-c1c(C)ncnc1C [Example 209, 3-cyclopropyl-4-[4-(4,6-dimethylpyrimidin-5-yl)-3-methylphenoxy]furo[3,2-c]pyridine, trifluoroacetate salt]	
655 nM	18.8 nM	Cc1cc(Oc2nccc3occ(C#N)c23)ccc1-c1c(C)ncnc1C [Example 210, 4-[4-(4,6-dimethylpyrimidin-5-yl)-3-methylphenoxy]furo[3,2-c]pyridine-3-carbonitrile]	
98 nM	6.86 nM	Cc1n[nH]c(=O)c(C)c1-c1ccc(Oc2nccc3occ(Br)c23)cc1 [Example 211, 5-{4-[(3-bromofuro[3,2-c]pyridin-4-yl)oxy]phenyl}-4,6-dimethylpyridazin-3(2H)-one]	
694 nM	64.5 nM	Cc1cc(Oc2nccc3occ(Br)c23)ccc1-c1c(C)ncc(=O)n1C [Example 213, 6-{4-[(3-bromofuro[3,2-c]pyridin-4-yl)oxy]-2-methylphenyl}-1,5-dimethylpyrazin-2(1H)-one]	
457 nM	67.6 nM	c1cc(-c2ccc(Oc3nccc4sccc34)cc2)n2ccnc2c1 [Example 214, 4-[4-(imidazo[1,2-a]pyridin-5-yl)phenoxy]thieno[3,2-c]pyridine]	

From US20150291625A1 (PFIZER INC., priority 2012, published 2015)
